PMC9333195, “Discovery of 2-Phenylquinoline-4-Carboxylic Acid Derivatives as Novel Histone Deacetylase Inhibitors” (Frontiers in Chemistry, 2022)

Columns and labels:
K562 cells = assay: CCK-8 antiproliferative assay, K562; details: for K562 percentage inhibitory rate: 2.0 µM compound, K562 cells, CCK-8, mean of three experiments; for inhibition at 2 µM: Homo sapiens, K562, read-out: K562 percentage inhibitory rate
Description: The proliferation of cancer cells was tested by CCK-8 assay. Briefly, cells were seeded in a 96-well plate with about 5 × 10^3 cells in each well. In the K652 cell screening, cells were treated with 2.0 μM of tested compounds. […] The light absorbance at 450 nm was measured by using an Opsys microplate reader (Dynex Technologies, Chantilly, VA, United States).

[1] = test system: Hela nucleus extract containing a mixture of HDAC isoforms; assay: In vitro HDAC inhibitory assay, HeLa cell nuclear extract screening at 2 µM; type: biochemical; details: 2.0 µM compound, mean of three experiments
Description: The HDAC enzyme inhibitory activities of synthesized compounds were evaluated against Hela nucleus extract containing a mixture of HDAC isoforms. Percentage inhibitory rate (PIR) was calculated to determine the activity of tested compounds (Table 1).
All HDAC enzymes were purchased from BPS Bioscience. […] The reaction was terminated by adding 100 μl of imaging agent containing trypsin and trichostatin A (TSA). After standing for 20 min, the fluorescence intensity was measured at the excitation and emission wavelengths of 360 and 460 nm with a microplate reader. The inhibition rate was calculated from the fluorescence intensity readings of the test wells relative to the control wells, and the IC50 curve and value were determined by GraphPad Prism 6.0 software.

Compound	melting point [°C]	K562 percentage inhibitory rate (K562 cells) [%]	HDACs percentage inhibitory rate (PIR) [1] [%]	inhibition at 2 µM (K562 cells) [%]
3,5-Difluoro-N-(4-(4-(4-(4-(Hydroxycarbamoyl)Phenyl)Piperazine-1-Carbonyl)Quinolin-2-yl)Phenyl)Benzamide [Compound D25]		37.64 ± 0.13	54.74 ± 1.41	
4-(4-(2-(4-Fluoro-3-Methylphenyl)Quinoline-4-Carbonyl)Piperazin-1-yl)-N-Hydroxybenzamide [Compound D17]		41.91 ± 0.13	47.41 ± 1.03	
O=C(NO)c1ccc(N2CCN(C(=O)c3cc(-c4ccc(Cl)cc4)nc4ccccc34)CC2)cc1 [Compound D3, 4-(4-(2-(4-Chlorophenyl)Quinoline-4-Carbonyl)Piperazin-1-yl)-N-Hydroxybenzamide]	228.1 to 229.2		49.43 ± 3.73	46.4 ± 0.53
O=C(NO)c1ccc(N2CCN(C(=O)c3cc(-c4ccc(F)cc4)nc4ccccc34)CC2)cc1 [Compound D4, 4-(4-(2-(4-Fluorophenyl)Quinoline-4-Carbonyl)Piperazin-1-yl)-N-Hydroxybenzamide]	163.5 to 164.8		47.79 ± 1.34	32.43 ± 0.2
O=C(NO)c1ccc(N2CCN(C(=O)c3cc(-c4ccc(C(F)(F)F)cc4)nc4ccccc34)CC2)cc1 [Compound D7, N-Hydroxy-4-(4-(2-(4-(Trifluoromethyl)Phenyl)Quinoline-4-Carbonyl)Piperazin-1-yl)Benzamide]	212.7 to 213.9		52.60 ± 2.37	40.3 ± 1.2
O=C(NO)c1ccc(N2CCN(C(=O)c3cc(-c4ccccc4F)nc4ccccc34)CC2)cc1 [Compound D10, 4-(4-(2-(2-Fluorophenyl)Quinoline-4-Carbonyl)Piperazin-1-yl)-N-Hydroxybenzamide]	172.5 to 173.3		58.52 ± 0.64	40.9 ± 1.22
O=C(NO)c1ccc(N2CCN(C(=O)c3cc(-c4cc(F)cc(F)c4)nc4ccccc34)CC2)cc1 [Compound D12, 4-(4-(2-(3,5-Difluorophenyl)Quinoline-4-Carbonyl)Piperazin-1-yl)-N-Hydroxybenzamide]	221.8 to 222		74.91 ± 0.35	51.8 ± 1.35
COc1ccccc1-c1cc(C(=O)N2CCN(c3ccc(C(=O)NO)cc3)CC2)c2ccccc2n1 [Compound D13, N-Hydroxy-4-(4-(2-(2-Methoxyphenyl)Quinoline-4-Carbonyl)Piperazin-1-yl)Benzamide]	224 to 224.9		54.24 ± 0.18	43.81 ± 0.26
O=C(NO)c1ccc(N2CCN(C(=O)c3cc(-c4ccc(NC(=O)c5ccccc5)cc4)nc4ccccc34)CC2)cc1 [Compound D19, 4-(4-(2-(4-Benzamidophenyl)Quinoline-4-Carbonyl)Piperazin-1-yl)-N-Hydroxybenzamide]	173.9 to 174.8		45.31 ± 0.68	59.19 ± 0.35
N-Hydroxy-4-(4-(2-(o-Tolyl)Quinoline-4-Carbonyl)Piperazin-1-yl)Benzamide [Compound D16]		15.26 ± 0.33	49.04 ± 31.22	

The next lines start with results.

melting point [°C]	Compound	K562 percentage inhibitory rate (K562 cells) [%]	HDACs percentage inhibitory rate (PIR) [1] [%]	inhibition at 2 µM (K562 cells) [%]
213.8 to 214.8	O=C(NO)c1ccc(N2CCN(C(=O)c3cc(-c4ccccc4)nc4ccccc34)CC2)cc1 [Compound D1, N-Hydroxy-4-(4-(2-Phenylquinoline-4-Carbonyl)Piperazin-1-yl)Benzamide]		57.96 ± 0.43	46.58 ± 0.35
231.7 to 232.8	O=C(NO)c1ccc(N2CCN(C(=O)c3cc(-c4ccc(Br)cc4)nc4ccccc34)CC2)cc1 [Compound D2, 4-(4-(2-(4-Bromophenyl)Quinoline-4-Carbonyl)Piperazin-1-yl)-N-Hydroxybenzamide]		59.50 ± 0.35	48.8 ± 1.32
177.2 to 179.6	CSc1ccc(-c2cc(C(=O)N3CCN(c4ccc(C(=O)NO)cc4)CC3)c3ccccc3n2)cc1 [Compound D5, N-Hydroxy-4-(4-(2-(4-(Methylthio)Phenyl)Quinoline-4-Carbonyl)Piperazin-1-yl)Benzamide]		50.93 ± 0.93	47.4 ± 1.11
184.3 to 186.8	COc1ccc(-c2cc(C(=O)N3CCN(c4ccc(C(=O)NO)cc4)CC3)c3ccccc3n2)cc1 [Compound D6, N-Hydroxy-4-(4-(2-(4-Methoxyphenyl)Quinoline-4-Carbonyl)Piperazin-1-yl)Benzamide]		52.31 ± 3.09	51.55 ± 0.25
207.1 to 208.9	O=C(NO)c1ccc(N2CCN(C(=O)c3cc(-c4cccc(Cl)c4)nc4ccccc34)CC2)cc1 [Compound D8, 4-(4-(2-(3-Chlorophenyl)Quinoline-4-Carbonyl)Piperazin-1-yl)-N-Hydroxybenzamide]		51.81 ± 4.07	42.9 ± 1.02
199.2 to 199.7	Cc1cccc(-c2cc(C(=O)N3CCN(c4ccc(C(=O)NO)cc4)CC3)c3ccccc3n2)c1 [Compound D9, N-Hydroxy-4-(4-(2-(m-Tolyl)Quinoline-4-Carbonyl)Piperazin-1-yl)Benzamide]		49.33 ± 0.82	45.81 ± 0.33
179.8 to 180.9	COc1cccc(-c2cc(C(=O)N3CCN(c4ccc(C(=O)NO)cc4)CC3)c3ccccc3n2)c1 [Compound D11, N-Hydroxy-4-(4-(2-(3-Methoxyphenyl)Quinoline-4-Carbonyl)Piperazin-1-yl)Benzamide]		63.49 ± 4.61	46.09 ± 0.43
235 to 236.4	O=C(NO)c1ccc(N2CCN(C(=O)c3cc(-c4ccccc4Cl)nc4ccccc34)CC2)cc1 [Compound D14, 4-(4-(2-(2-Chlorophenyl)Quinoline-4-Carbonyl)Piperazin-1-yl)-N-Hydroxybenzamide]		49.74 ± 2.06	48.3 ± 1.02
225 to 226.3	O=C(NO)c1ccc(N2CCN(C(=O)c3cc(-c4cccc(F)c4)nc4ccccc34)CC2)cc1 [Compound D15, 4-(4-(2-(3-Fluorophenyl)Quinoline-4-Carbonyl)Piperazin-1-yl)-N-Hydroxybenzamide]		58.80 ± 2.95	26.2 ± 0.62
200.6 to 201.2	CN(C)c1ccc(-c2cc(C(=O)N3CCN(c4ccc(C(=O)NO)cc4)CC3)c3ccccc3n2)cc1 [Compound D18, 4-(4-(2-(4-(Dimethylamino)Phenyl)Quinoline-4-Carbonyl)Piperazin-1-yl)-N-Hydroxybenzamide]		48.37 ± 0.35	48.3 ± 0.31
178.3 to 180.3	O=C(NO)c1ccc(N2CCN(C(=O)c3cc(-c4ccc(NC(=O)c5ccc(F)cc5)cc4)nc4ccccc34)CC2)cc1 [Compound D20, 4-Fluoro-N-(4-(4-(4-(4-(Hydroxycarbamoyl)Phenyl)Piperazine-1-Carbonyl)Quinolin-2-yl)Phenyl)Benzamide]		48.46 ± 0.68	45.9 ± 1.34
